Assay [1] concerns the target T1, Shaker KV channel R362Q (Drosophila melanogaster, UniProt P08510, DEL6-46/R362Q).
T1 construct: expressed in transfected cells; host or cells: Xenopus laevis oocytes (RNA injection)
Conditions: Fig. 1 E; ref Ottosson et al., 2017; Silverå Ejneby et al., 2018; cited from earlier work.

The target of assay [2] is T2, WT Shaker KV channel (ShH4IR) (Drosophila melanogaster, UniProt P08510, DEL6-46).
T2 construct: expressed in transfected cells; host or cells: Xenopus laevis oocytes (RNA injection)
T2 sequence (P08510 other isoform, or with tags, fused parts or gaps DEL6-46): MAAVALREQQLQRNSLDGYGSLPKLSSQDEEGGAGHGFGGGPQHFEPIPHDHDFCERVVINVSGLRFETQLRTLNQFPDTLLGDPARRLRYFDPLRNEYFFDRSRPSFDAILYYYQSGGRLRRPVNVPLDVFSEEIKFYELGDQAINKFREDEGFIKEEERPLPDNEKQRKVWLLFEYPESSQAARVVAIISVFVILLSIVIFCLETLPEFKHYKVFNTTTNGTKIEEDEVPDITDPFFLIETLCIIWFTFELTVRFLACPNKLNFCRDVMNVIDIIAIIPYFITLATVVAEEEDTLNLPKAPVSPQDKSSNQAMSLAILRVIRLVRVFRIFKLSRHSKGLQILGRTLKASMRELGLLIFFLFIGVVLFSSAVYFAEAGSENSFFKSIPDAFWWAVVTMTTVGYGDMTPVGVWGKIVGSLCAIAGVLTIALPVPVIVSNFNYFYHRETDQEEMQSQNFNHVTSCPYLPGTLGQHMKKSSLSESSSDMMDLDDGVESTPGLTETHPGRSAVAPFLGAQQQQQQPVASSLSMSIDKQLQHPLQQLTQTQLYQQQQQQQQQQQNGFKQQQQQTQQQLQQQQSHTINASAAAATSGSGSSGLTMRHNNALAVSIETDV
In words: Two-electrode voltage clamp of Shaker KV channels expressed in Xenopus laevis oocytes: WT. It is filed as cell-based. Conditions: for EC50: WT, pH 7.4, concentration-response (Eq. 3), read-out: EC50 of the G(V) shift (apparent affinity). The text has this: (§1) The Shaker H4 channel (GenBank accession no. NM_167595.3; [Kamb et al., 1987]), with removed N-type inactivation due to a Δ6-46 deletion (ShH4IR, in Bluescript II KS(+) plasmid; [Hoshi et al., 1990]), is referred to as the WT Shaker KV channel. […] Therefore, we specifically refer to the two added arginines just outside S4 (M356R/A359R) as the 2R motif. Mutations were introduced with site-directed mutagenesis and verified with sequencing as described previously ([Börjesson et al., 2010]). RNA injection and oocyte handling were performed as before ([Börjesson et al., 2010]; [Ottosson et al., 2015]). All animal experiments were approved by the Linköping’s local Animal Care and Use Committee.
(§2) Electrophysiological experiments were made 1–6 d after RNA injection. K^+ currents were measured with the two-electrode voltage-clamp technique (GeneClamp 500B amplifier; Axon Instruments) as described previously ([Ottosson et al., 2015]; [Silverå Ejneby et al., 2018]). The amplifier’s leak compensation was used, and the currents were low-pass filtered at 5 kHz. The control solution contained (in mM) 88 NaCl, 1 KCl, 15 HEPES, 0.4 CaCl2, and 0.8 MgCl2, and pH was set with NaOH. All experiments were made at room temperature (20°C–23°C). The holding potential was set to −80 mV (or −100 mV if the mutant was not fully closed at −80 mV).
(§3) Stock solutions were stored at −20°C and diluted in control solution just before experiments. The test solution was added to the oocyte bath manually with a syringe. […] To make sure all Wu50 molecules were negatively charged, the pH of the control solution was set to 9.0 before the experiments.
(§4) The conductance, G(V), was calculated as G(V)=I/(V−VK), (1) where I is the steady-state current measured at the end of each test-voltage sweep (100 ms after onset; Clampfit 10.5; Molecular Devices), V is the absolute membrane voltage, and VK is the reversal potential for K^+ ions (set to −80 mV). The conductance was fitted with a Boltzmann equation (GraphPad Prism 5; GraphPad Software, Inc.) GK(V)=GMAX/{1+exp[(V½−V)/s]}, (2) where GMAX is the amplitude (maximal conductance) of the curve, V is the absolute membrane voltage, V1/2 is the midpoint, and s is the slope. The resin-acid–induced G(V) shift was calculated as V1/2 (compound) − V1/2 (control). The relative change in GMAX was calculated as GMAX (compound) / GMAX (control). The concentration dependence for the G(V) shifts was calculated as ΔV= ΔVMAX/(1 +EC50/c), (3) where ΔV is the voltage shift, ΔVMAX is the voltage shift at saturating concentration, c is the concentration of the tested compound, and EC50 is the concentration at which half-maximum response occurs.
(In general: Two-electrode voltage clamp is typically applied to oocytes expressing channels or transporters.)

The target in assay [3] is T3, Shaker KV channel with the 2R motif (M356R/A359R) (Drosophila melanogaster, UniProt P08510, A359R/DEL6-46/M356R).
T3 construct: expressed in transfected cells; host or cells: Xenopus laevis oocytes (RNA injection)
T3 sequence (P08510 other isoform, or with tags, fused parts or gaps DEL6-46/M356R/A359R): as the sequence (P08510 other isoform, or with tags, fused parts or gaps DEL6-46) above, with M315R, A318R counted along it
In words: Two-electrode voltage clamp in Xenopus oocytes: 2R motif channel. It is filed as cell-based.
Description: as §1, §2, §3, §4

Assay [4] deals with T4, Shaker KV channel M356R/A359R/R362Q (Drosophila melanogaster, UniProt P08510, A359R/DEL6-46/M356R/R362Q).
T4 construct: expressed in transfected cells; host or cells: Xenopus laevis oocytes (RNA injection)
T4 sequence (P08510 other isoform, or with tags, fused parts or gaps DEL6-46/M356R/A359R/R362Q): as the sequence (P08510 other isoform, or with tags, fused parts or gaps DEL6-46) above, with M315R, A318R, R321Q counted along it
In words: Two-electrode voltage clamp in Xenopus oocytes: 2R motif/R362Q. Format: cell-based. Conditions: 100 μM, pH 7.4, M356R/A359R/R362Q.
Description: (§5) The Shaker H4 channel (GenBank accession no. NM_167595.3; [Kamb et al., 1987]), with removed N-type inactivation due to a Δ6-46 deletion (ShH4IR, in Bluescript II KS(+) plasmid; [Hoshi et al., 1990]), is referred to as the WT Shaker KV channel. Addition of two positively charged arginines (M356R/A359R) at the extracellular top of the voltage sensor increases the effect of charged lipophilic compounds ([Ottosson et al., 2014], [2015], [2017]). […] However, for the resin-acid derivatives studied in the present investigation, R362 reduced the effect. Therefore, we specifically refer to the two added arginines just outside S4 (M356R/A359R) as the 2R motif. Mutations were introduced with site-directed mutagenesis and verified with sequencing as described previously ([Börjesson et al., 2010]). RNA injection and oocyte handling were performed as before ([Börjesson et al., 2010]; [Ottosson et al., 2015]). All animal experiments were approved by the Linköping’s local Animal Care and Use Committee.
as §2
Stock solutions were stored at −20°C and diluted in control solution just before experiments. The test solution was added to the oocyte bath manually with a syringe. […] To make sure all Wu50 molecules were negatively charged, the pH of the control solution was set to 9.0 before the experiments. This pH change had only small effects on channel kinetics and the G(V) relation.
as §4, with “The conductance was fitted with a Boltzmann equation (GraphPad Prism 5; GraphPad Software, Inc.) GK(V)=GMAX/{1+exp[(V½−V)/s]}, (2) where GMAX is the amplitude (maximal conductance) of the curve, V is the absolute membrane voltage, V1/2 is the midpoint, and s is the slope.” left out

For another assay, the target named is T5, Shaker KV channel W454A (Drosophila melanogaster, UniProt P08510, DEL6-46/W454A).
T5 construct: expressed in transfected cells; host or cells: Xenopus laevis oocytes (RNA injection)
T5 sequence (P08510 other isoform, or with tags, fused parts or gaps DEL6-46/W454A): as the sequence (P08510 other isoform, or with tags, fused parts or gaps DEL6-46) above, with W413A counted along it
Kind of assay: Two-electrode voltage clamp in Xenopus oocytes: W454A. Conditions: 100 μM, pH 7.4, W454A. Format: cell-based.
Description: as §5
(§6) Electrophysiological experiments were made 1–6 d after RNA injection. K^+ currents were measured with the two-electrode voltage-clamp technique (GeneClamp 500B amplifier; Axon Instruments) as described previously ([Ottosson et al., 2015]; [Silverå Ejneby et al., 2018]). […]
as §4, with “The conductance was fitted with a Boltzmann equation (GraphPad Prism 5; GraphPad Software, Inc.) GK(V)=GMAX/{1+exp[(V½−V)/s]}, (2) where GMAX is the amplitude (maximal conductance) of the curve, V is the absolute membrane voltage, V1/2 is the midpoint, and s is the slope.” left out

Assay [5] concerns the target T1, Shaker KV channel R362Q. In words: Two-electrode voltage clamp in Xenopus oocytes: R362Q. Format: cell-based. Conditions: 100 μM, pH 7.4, R362Q.
Description: as §5, §6
as §4, with “The conductance was fitted with a Boltzmann equation (GraphPad Prism 5; GraphPad Software, Inc.) GK(V)=GMAX/{1+exp[(V½−V)/s]}, (2) where GMAX is the amplitude (maximal conductance) of the curve, V is the absolute membrane voltage, V1/2 is the midpoint, and s is the slope.” left out

For assay [6], the target named is T6, Shaker KV channel R362Q/W454A/F416A (Drosophila melanogaster, UniProt P08510, DEL6-46/F416A/R362Q/W454A).
T6 construct: expressed in transfected cells; host or cells: Xenopus laevis oocytes (RNA injection)
T6 sequence (P08510 other isoform, or with tags, fused parts or gaps DEL6-46/R362Q/F416A/W454A): as the sequence (P08510 other isoform, or with tags, fused parts or gaps DEL6-46) above, with R321Q, F375A, W413A counted along it
Kind of assay: Two-electrode voltage clamp in Xenopus oocytes: R362Q/W454A/F416A. The settings on record: 100 μM, pH 7.4, R362Q/W454A/F416A. It is filed as cell-based.
Description: as §5, §6
as §4, with “The conductance was fitted with a Boltzmann equation (GraphPad Prism 5; GraphPad Software, Inc.) GK(V)=GMAX/{1+exp[(V½−V)/s]}, (2) where GMAX is the amplitude (maximal conductance) of the curve, V is the absolute membrane voltage, V1/2 is the midpoint, and s is the slope.” left out

Assay [7] deals with T7, Shaker KV channel R362Q/R365Q (Drosophila melanogaster, UniProt P08510, DEL6-46/R362Q/R365Q).
T7 construct: expressed in transfected cells; host or cells: Xenopus laevis oocytes (RNA injection)
T7 sequence (P08510 other isoform, or with tags, fused parts or gaps DEL6-46/R362Q/R365Q): as the sequence (P08510 other isoform, or with tags, fused parts or gaps DEL6-46) above, with R321Q, R324Q counted along it
Kind of assay: Two-electrode voltage clamp in Xenopus oocytes: R362Q/R365Q. Conditions: 100 μM, pH 7.4, R362Q/R365Q. Format: cell-based.
Description: as §5, §6
as §4, with “The conductance was fitted with a Boltzmann equation (GraphPad Prism 5; GraphPad Software, Inc.) GK(V)=GMAX/{1+exp[(V½−V)/s]}, (2) where GMAX is the amplitude (maximal conductance) of the curve, V is the absolute membrane voltage, V1/2 is the midpoint, and s is the slope.” left out

Assay [8] has as its target T8, Shaker KV channel R362Q/R365Q/W454A/F280I (Drosophila melanogaster, UniProt P08510, DEL6-46/F280I/R362Q/R365Q/W454A).
T8 construct: expressed in transfected cells; host or cells: Xenopus laevis oocytes (RNA injection)
Kind of assay: Two-electrode voltage clamp in Xenopus oocytes: R362Q/R365Q/W454A/F280I. It is filed as cell-based. The settings on record: 100 μM, pH 7.4, R362Q/R365Q/W454A/F280I.
Description: as §5, with “Mutations were introduced with site-directed mutagenesis and verified with sequencing as described previously ([Börjesson et al., 2010]). RNA injection and oocyte handling were performed as before ([Börjesson et al., 2010]; [Ottosson et al., 2015]). All animal experiments were approved by the Linköping’s local Animal Care and Use Committee.” left out
as §6
The conductance, G(V), was calculated as G(V)=I/(V−VK), (1) where I is the steady-state current measured at the end of each test-voltage sweep (100 ms after onset; Clampfit 10.5; Molecular Devices), V is the absolute membrane voltage, and VK is the reversal potential for K^+ ions (set to −80 mV). […] The resin-acid–induced G(V) shift was calculated as V1/2 (compound) − V1/2 (control). The relative change in GMAX was calculated as GMAX (compound) / GMAX (control). […]

Assay [9] concerns Shaker KV channel binding sites (S3/S4, S4/pore, residual). Kind of assay: Additive model of site contributions to the G(V) shift (least squares fit). Also on record: species or system Drosophila melanogaster. An excerpt:
We also considered a reduced dataset of five mutants for Wu50 to make the comparison between the two compounds equitable (Table S1).
The G(V) shift for each mutant was expressed as a sum of contribution from the various sites: ΔVmodel=ΔVS3/S4+ΔVS4/pore+ΔVResidual, (4) where ΔVS3/S4 is the G(V) shift due to compound binding to the S3/S4 site, ΔVS4/pore is the G(V) shift due to compound binding to the S4/pore site, and ΔVResidual is the G(V) shift due to compound binding to other sites, including the top-VSD site.
Following the assumptions based on observations made using MD simulations, ΔVS3/S4 was set to 0 if the 2R motif was missing (i.e., in the WT channel), ΔVS4/pore could adopt one of four values depending on the type of mutation (R362/W454 = WT configuration, R362Q, W454A, or R362Q/W454A), and ΔVResidual was assumed to be the same for all mutants.
The model further assumed that there is a residual effect that can be due to binding to the VSD-top site or to any other unidentified site and that the contributions due to binding to the S3/S4 site and the S4/pore site depend upon mutations at this site.

T1 sequence (P08510 other isoform, or with tags, fused parts or gaps DEL6-46/R362Q): as the sequence (P08510 other isoform, or with tags, fused parts or gaps DEL6-46) above, with R321Q counted along it
T8 sequence (P08510 other isoform, or with tags, fused parts or gaps DEL6-46/F280I/R362Q/R365Q/W454A): as the sequence (P08510 other isoform, or with tags, fused parts or gaps DEL6-46) above, with F239I, R321Q, R324Q, W413A counted along it

As to `CC/C=C\C/C=C\C/C=C\C/C=C\C/C=C\C/C=C\CCC(=O)O` [DHA, docosahexaenoic acid], the “Change of the G(V)-shifting effect on neutralization of R362 (R362Q versus WT)” value (from here on “Change of the G(V)-shifting effect”) at Shaker KV channel R362Q [1] is “no noticeable change”.

Turning to `CC(C)c1ccc2c(c1)CC[C@H]1[C@](C)(C(=O)O)CCC[C@]21C` [DHAA, dehydroabietic acid], the “Change of the G(V)-shifting effect” value at Shaker KV channel R362Q [1] is “increase in effect”.

In the case of `CO/N=C1\C[C@H]2[C@](C)(C(=O)O)CCC[C@]2(C)c2cc(Br)c(C(C)C)cc21` [Wu32], the “Change of the G(V)-shifting effect” value on Shaker KV channel R362Q [1] is listed as “increase in effect”.

Regarding `CC(C)c1ccc2c(c1)CC[C@H]1[C@](C)(COS(=O)(=O)O)CCC[C@]21C` [Wu161], the “GMAX (rel.)” value is 1.03 rel in assay [2] (100 μM, pH 7.4, WT); 1.20 rel in [3] (100 μM, pH 7.4, M356R/A359R (=2R)); 1.19 rel in [4]; 0.86 rel on Shaker KV channel W454A; 1.05 rel at Shaker KV channel R362Q [5]; 0.47 rel in assay [6]. In addition, the results for the “GMAX (rel.)” value in [7] and in assay [8] were 0.99 rel and 0.64 rel, respectively. Besides, the EC50 in assay [2] turned out to be 43.7 ± 6.3 µM; in assay [3] (2R motif, pH 7.4, concentration-response (Eq. 3), read-out: EC50 of the G(V) shift (apparent affinity)), 36.4 ± 9 µM. Further, the “ΔVS3/S4 (contribution of the S3/S4 site in the presence of the 2R mutations)” value in assay [9] (five mutants) is −17 mV. Besides, the “ΔVS4/pore, R362Q configuration” value in [9] (five mutants) was 0 to −6 mV. For the same compound, in assay [9] (five mutants), the “ΔVS4/pore, WT S4/pore site” value was −7 to −13 mV. Further, the “ΔVS4/pore, W454A configuration” value in assay [9] (no clear difference between five-mutants and eight-mutants datasets) is on record as “+2 to −6 mV”.

As for `C[C@@]1(COS(=O)(=O)O)CCC[C@]2(C)c3cc(Cl)c(Cl)c(Cl)c3CC[C@@H]12` [Wu181], the EC50 in [2] was determined as 1.6 ± 0.6 µM. Further, the “Increase of the maximum G(V) shift by the 2R motif” value in [3] (2R motif versus WT, Wu50 pH 9.0, Wu161 and Wu181 pH 7.4) came out at 590%. The “ΔVMAX (maximum G(V) shift)” value in [3] (2R motif, pH 7.4, concentration-response (Eq. 3)) was −53.6 ± 4.0 mV.

The values above are taken from publication PMC7944402, “Resin-acid derivatives bind to multiple sites on the voltage-sensor domain of the Shaker potassium channel” (The Journal of General Physiology, 2021).
